By pIC50 is commonly meant the IC50 on a negative log10 scale, so that one unit is a factor of ten. Low readings indicate a large IC50, high ones a small IC50.

The values that follow come from patent US7595400B2, “Process for the preparation of hexacyclic compounds” (Chugai Seiyaku Kabushiki Kaisha, priority 2003, dated 2009).

pIC50: −log10 of the molar value.

The conditions of data set [1]: converted to the inactive carboxylate form; cited from earlier work.
In another data set the test system is HCT116 (CRC). The experiment in a line: Anti-proliferative activity assay (WST-8), HCT116. In kind it is cell-based, human. As to conditions: HCT116 colorectal cancer cells, 4 days incubation. On the procedure:
(§1) The Antiproliferative activity assay was carried out as follows. A single suspension of tumor cells was inoculated to the serially diluted 96-well microtestplate. Then the testplate was incubated in the 5% CO2 ambience at 37° C. for 4 days (2-3×10^3 cells/well). The degree of cell growth in a monolayer was measured by using WST-8 (Dojindo, Japan). IC50 values of drugs against tumor cells were calculated as the concentration of drug yielding 50% OD of the control growth. The IC50 value measures the drug concentration for 50% of the growth of tumor cells in vitro as compared to the control.
(§2) Anti-tumor activities of hexacyclic compounds of formula [1] against in vitro growth of human tumor cell lines, HCT116 and DLD-1 of colorectal cancer (CRC) and QG56 and NCI-H460 of non small cell lung cancer (NSCLC) are shown in Table 1. These cell lines are commercially available via the American Type Culture Collection (ATTC).

The next data set relates to DLD-1 (CRC). Briefly: Anti-proliferative activity assay (WST-8), DLD-1. As to conditions: DLD-1 colorectal cancer cells, 4 days incubation. In kind it is cell-based, human. On the procedure: as §1, §2
For orientation: Formazan colour is commonly taken as a measure of viable cells.

The subject of a further data set is QG56 (NSCLC). The experiment in a line: Anti-proliferative activity assay (WST-8), QG56. As to conditions: QG56 non small cell lung cancer cells, 4 days incubation. In kind it is cell-based, human. On the procedure:
as §1, §2

A further data set concerns NCI-H460 (NSCLC). The experiment in a line: Anti-proliferative activity assay (WST-8), NCI-H460. In kind it is cell-based, human. The settings on record: NCI-H460 non small cell lung cancer cells, 4 days incubation. On the procedure: as §1, §2

For the compound `CC[C@@]1(O)C(=O)OCc2c1cc1n(c2=O)Cc2cc3ccccc3nc2-1` [camptothecin], the half-life in plasma result in data set [1] was “less than 30 min”.
On to `CCc1c2c(nc3ccc(O)cc13)-c1cc3c(c(=O)n1C2)COC(=O)[C@]3(O)CC` [SN-38, 7-ethyl-10-hydroxycamptothecin], for which the pIC50 was 8.16 in the data set on HCT116 (CRC), 7.28 in the data set with DLD-1 (CRC), 7.57 with QG56 (NSCLC) and 7.68 with NCI-H460 (NSCLC).
